Measured values reported in patent US6677324B1, “Combination preparation of estrogen and anti-estrogen” (Schering Aktiengesellschaft, priority 1998, dated 2004).

Tests used:
uterus and bone = assay: Selective bone action test: uterus weight, uterine epithelium depth and trabecular bone density of proximal tibia in ovarectomized rats; type: in vivo, rat; settings: combination with 17β-oestradiol, ovarectomized rats 3 months old, treated 28 days, FIGS. 1-3
Description: (§1) In the FIG. 1 means: control (only solvent), 2: 0.3 μg of oestradiol, 3: 75 μg of test substance, 4: 75 μg of test substance+0.03 μg of oestradiol, 5: 75 μg of test substance+0.1 μg of oestradiol, 6: 75 μg of test substance+0.3 μg of oestradiol, 7: 75 μg of test substance+1.0 μg of oestradiol, 8: 75 μg of test substance+3.0 μg of oestradiol.
as §1, with “μg of oestradibl, 3: 75” for “μg of oestradiol, 3: 75”
The doses of the oestrogen and antioestrogen to be used for the selective bone action test must be established to begin with in preliminary investigations.
The dose of the antioestrogen to be used is determined by an antiuterus growth test in the oestradiol-substituted, ovarectomized rat. […]
After 28 days, the animals are killed and the uterus weight, as well as the trabecular bone density in the proximal tibia, is measured. The uterus weight is determined by weighing the uterus moist weight immediately after organ removal. The trabecular bone density is determined ex vivo by bone density measurements in the secondary spongiosa of the proximal tibia using a QCT (Stratec XCT 960A).

central nervous system = settings: Biegon et al. 1996; cited from earlier work

| SMILES | selective action of the combination on bone versus uterus (uterus and bone) | action in the central nervous system (central nervous system) |
| --- | --- | --- |
| CN(CCCCC[C@@H]1Cc2cc(O)ccc2[C@@H]2[C@@H]1[C@@H]1CC[C@H](O)[C@@]1(C)C[C@@H]2F)CCCSCCCC(F)(F)C(F)(F)F [Example 1, 11β-fluoro-7α-{5-[N-methyl-N-3-(4,4,5,5,5-pentafluoropentylthio)propylamino]pentyl}-oestra-1,3,5(10)-triene-3,17β-diol] | selectively active | – |
| CC/C(=C(\c1ccccc1)c1ccc(OCCN(C)C)cc1)c1ccccc1 [tamoxifen] | – | acts there as an oestroaenic antagonist |
